In patent US20120122840A1, “COMPOUNDS AND THERAPEUTIC USES THEREOF” (Myrexis, Inc., priority 2009, published 2012):

Experiments:
HeLa cells = assay: Cell cycle progression after double thymidine block (propidium iodide, flow cytometry); assay type: cell-based; details: VX-680 at 500 nM
Protocol: HeLa cells were synchronized in the G1 phase of the cell cycle using a double thymidine block. The cells were released from the block by removing the media and replacing it with media containing DMSO, 500 nM VX-680 (Aurora inhibitor), or a TTK inhibitor. At the indicated time points, cells were fixed with methanol, permeabilized and stained with propidium iodide. DNA content was analyzed using a Guava EasyCyte flow cytometer.
This is due to improper spindle formation and chromosome segregation followed by failed cytokinesis. Previously, it has been shown that inhibition of TTK using siRNA results in chromosome missegregation and mitotic defects. Using TTK inhibitors of the present invention, defects in chromosome segregation were observed. Therefore, the effect of the TTK inhibitors of the present invention were analyzed for their effect on cell cycle progression and/or DNA content.

A549 cells = assay: Image analysis of chromosome segregation; assay type: cell-based; details: 10 μM, 24 hours
Text: (§1) Image analysis: Cells were fixed and stained with Hoechst dye and anti-(3-tubulin, anti-pericentrin and anti-centromere antibodies. Images were taken on a BD Pathway high content imaging system. For cell cycle analysis, cells were fixed, stained with propidium iodide and analyzed by FACS. For Western blot analysis, cell lysates were run on SDS-polyacrylamide gels and proteins were transferred to PVDF membrane. Membranes were probed with the indicated antibodies.
Cells were stained with Hoechst dye (blue) and anti-tubulin (green), anti-pericentrin (red) and anti-centromere (white) antibodies.

HCT-116 cells = assay: Cell cycle analysis by FACS (propidium iodide); assay type: cell-based; details: 1 μM, 24, 48 or 72 hours
Text: as §1
Cells were fixed, stained with propidium iodide and analyzed by fluorescence activated cell sorting (FACS) using a FACScan instrument.

p53 pathway = assay: Western blot of p53 and p21 in HCT-116 cells; assay type: cell-based
Text: as §1
(§2) Western blot analyses: Cells were lysed in 10 mM Tris-HCl pH 7.5, 1 mM EDTA, 150 mM NaCl, 10% glycerol, protease inhibitor cocktail, phosphatase 1, and phosphatase 2. Protein yields were determined by Bradford assay and equivalent amounts of protein were loaded for each sample.
Antibodies: All antibodies were purchased from Cell Signaling Technology.
Cell lysates were analyzed by Western blot with anti-p53, anti-p21 or anti-β-actin antibodies (see FIG. 4A).
(§3) p53 was previously reported to suppress the expression of survivin. […] Cell lysates were analyzed by Western blot with anti-p53, anti-survivin or anti-β-actin antibodies (see FIG. 4C). […] Induction of p53 preceded the loss of survivin.

p21 mRNA = assay: qRT-PCR of p21 mRNA in HCT-116 cells; assay type: cell-based; details: 1 μM, time course, relative to 7 hour DMSO control
Protocol: For qRT-PCR: Primer probe sets for p21 and GAPDH were purchased from Applied Biosystems. qRT-PCR was performed using the Quantitect Probe RT-PCR Kit from Qiagen following the standard protocol.
The p21 mRNA levels were normalized to the GAPDH mRNA levels from the same total RNA sample.

survivin = assay: Western blot of survivin in HCT-116 cells; assay type: cell-based; details: increasing concentrations, 48 hours
Protocol: as §2, §3

p53 = assay: Western blot with phosphospecific anti-p53 antibodies in HCT-116 cells; assay type: cell-based; details: 1 μM, 48 hours
Protocol: as §2
Phosphorylation of p53 at various sites on the N-terminus results in the stabilization of p53. […] Cell lysates were analyzed by Western blot with anti-GAPDH, anti-p53 or the phosphospecific anti-p53 antibodies.

histone H2AX = assay: Western blot of H2AX-pS139 in HCT-116 cells; assay type: cell-based; details: 1 μM, 7, 24, 36 or 48 hours
Protocol: as §2
Phosphorylation and stabilization of p53 occurs in response to DNA damage. Phosphorylation of H2AX functions to recruit DNA repair enzymes to sites of DNA damage and serves as a marker for DNA double strand breaks. […] Cell lysates were analyzed by Western blot with anti-H2AX-pS139 (gH2AX) or β-actin antibodies. […] Inhibition of TTK induces the phosphorylation of p53 on serine 15 and H2AX on serine 139.

Aurora A [1] = target: T1, Aurora A (Homo sapiens, UniProt O14965); assay: Direct target affinity purification (DTAP) from cell lysates; assay type: binding; details: compound coupled to Sepharose beads
T1 sequence (O14965 1-403): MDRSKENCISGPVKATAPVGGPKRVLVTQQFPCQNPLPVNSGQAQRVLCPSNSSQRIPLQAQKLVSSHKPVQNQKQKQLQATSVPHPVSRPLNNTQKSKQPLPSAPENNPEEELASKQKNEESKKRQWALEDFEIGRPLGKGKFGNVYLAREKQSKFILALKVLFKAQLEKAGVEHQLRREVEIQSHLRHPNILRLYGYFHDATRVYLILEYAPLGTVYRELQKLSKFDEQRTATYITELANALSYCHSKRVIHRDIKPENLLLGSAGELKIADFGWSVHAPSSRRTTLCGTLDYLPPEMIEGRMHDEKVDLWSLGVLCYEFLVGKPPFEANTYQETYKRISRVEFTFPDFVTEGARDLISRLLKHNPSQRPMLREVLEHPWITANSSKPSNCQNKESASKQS
Text: (§4) Direct target affinity purification (DTAP) was used to investigate (1) the selectivity of compounds of the invention for TTK, relative to other kinases, and (2) the importance of a specific methyl substituent in providing that selectivity.
(§5) In preparation for DTAP studies, the two compounds depicted above were synthesized with an alkyl-amine linker to allow covalent coupling to epoxy-activated Sepharose 6B beads (GE Healthcare, Piscataway, N.J.). Sepharose beads were swollen and washed with water for 30 min followed by equilibration in coupling buffer (50% dimethylformamide, 50 mM Na2CO3). Beads were pelleted by centrifugation (15 sec at 2000×g) and the supernatant removed by aspiration. An equal volume of coupling buffer containing the linkered test compound was used to resuspend the beads. Compound concentrations in the coupling reaction ranged from 0.1 mM to 12.5 mM. The coupling reactions were incubated at 34° C. for 18 hrs on a rotator mixer. Ethanolamine was added to 1 M for the final 1 hr to quench the coupling reaction. Beads were washed extensively with binding buffer (1 M NaCl, 50 mM Hepes [pH 7.4], 1% Triton X-100, 1 mM EDTA and 1 mM dithiothreitol) to remove residual coupling reagents, and were then stored at 4° C.
(§6) Cellular proteins were prepared by mild sonication in lysis buffer (150 mM NaCl, 50 mM Hepes [pH 7.4], 1% Triton X-100, 1 mM EDTA and 2 mM dithiothrietol containing 1× Halt™ protease and phosphatase inhibitor cocktail [Thermo Fisher Scientific, Rockford, Ill.]). Lysates were centrifuged (20,000×g for 20 min) to remove debris, diluted to a protein concentration of ˜5 mg/ml, divided into aliquots, and stored at −80° C.
(§7) For DTAP reactions, cell lysates (˜0.5 ml per binding reaction) were thawed and the NaCl concentration adjusted to 1 M. Competitor compounds dissolved in DMSO (or a DMSO control) were then added to the lysate and incubated on ice for 5 min. The lysates were centrifuged at 20,000×g for 10 min and the cleared supernatant was transferred to a tube containing 50 μl of coupled beads. The binding reactions were incubated on a rotator mixer at 4° C. for 2 hrs, after which the beads were pelleted by centrifugation and the supernatant removed by aspiration. The beads were washed three times with 20 volumes of binding buffer, 2× with 20 volumes wash buffer (150 mM NaCl, 50 mM Hepes [pH 7.4], 1% Tween 20, 1 mM EDTA, 2 mM dithiothrietol) and finally twice with 10 volumes of 150 mM NaCl, 50 mM Hepes [pH 7.4].
(§8) During the final wash, an aliquot containing 10 μl of beads was transferred to a separate tube and resuspended with 15 μl of 2× SDS/PAGE loading buffer (Invitrogen Corporation, Carlsbad, Calif.) for 5 min at 90° C. The eluted proteins were resolved by electrophoresis on a NuPage 4-12% Bis-Tris Gel (Invitrogen Corporation, Carlsbad, Calif.) and visualized by staining with Ruby Red (Invitrogen Corporation, Carlsbad, Calif.). The remaining beads (40 μl) were processed for analysis by mass spectrometry.

FER [2] = target: T2, FER (Homo sapiens, UniProt P16591); assay: as above; assay type: binding; details: compound coupled to Sepharose beads
Text: as §4, §5, §6, §7, §8

JAK1 [3] = target: T3, JAK1 (Homo sapiens, UniProt P23458); assay: as above; assay type: binding; details: compound coupled to Sepharose beads
T3 construct: Cellular proteins were prepared by mild sonication in lysis buffer; endogenous in cells
Text: as §4, §5, §6, §7, §8

JNK [4] = target: T4, JNK (Homo sapiens, UniProt P45983); assay: as above; assay type: binding; details: compound coupled to Sepharose beads
Text: as §4, §5, §6, §7, §8

Aurora A [5] = target: T1, Aurora A; assay: In vitro binding assays
FER [6] = target: T2, FER; assay: In vitro binding assays
JNK [7] = target: T4, JNK; assay: In vitro binding assays
JAK1 [8] = target: T3, JAK1; assay: In vitro binding assays
TTK = target: T5, TTK (Homo sapiens, UniProt P33981); assay: TTK inhibition assay ([γ-33P]ATP transfer to phosphorylated MBP); assay type: biochemical; design: A. Recombinant TTK enzyme; details: read-out: inhibition of the protein kinase activity of TTK, IC50
T5 sequence (P33981 1-857): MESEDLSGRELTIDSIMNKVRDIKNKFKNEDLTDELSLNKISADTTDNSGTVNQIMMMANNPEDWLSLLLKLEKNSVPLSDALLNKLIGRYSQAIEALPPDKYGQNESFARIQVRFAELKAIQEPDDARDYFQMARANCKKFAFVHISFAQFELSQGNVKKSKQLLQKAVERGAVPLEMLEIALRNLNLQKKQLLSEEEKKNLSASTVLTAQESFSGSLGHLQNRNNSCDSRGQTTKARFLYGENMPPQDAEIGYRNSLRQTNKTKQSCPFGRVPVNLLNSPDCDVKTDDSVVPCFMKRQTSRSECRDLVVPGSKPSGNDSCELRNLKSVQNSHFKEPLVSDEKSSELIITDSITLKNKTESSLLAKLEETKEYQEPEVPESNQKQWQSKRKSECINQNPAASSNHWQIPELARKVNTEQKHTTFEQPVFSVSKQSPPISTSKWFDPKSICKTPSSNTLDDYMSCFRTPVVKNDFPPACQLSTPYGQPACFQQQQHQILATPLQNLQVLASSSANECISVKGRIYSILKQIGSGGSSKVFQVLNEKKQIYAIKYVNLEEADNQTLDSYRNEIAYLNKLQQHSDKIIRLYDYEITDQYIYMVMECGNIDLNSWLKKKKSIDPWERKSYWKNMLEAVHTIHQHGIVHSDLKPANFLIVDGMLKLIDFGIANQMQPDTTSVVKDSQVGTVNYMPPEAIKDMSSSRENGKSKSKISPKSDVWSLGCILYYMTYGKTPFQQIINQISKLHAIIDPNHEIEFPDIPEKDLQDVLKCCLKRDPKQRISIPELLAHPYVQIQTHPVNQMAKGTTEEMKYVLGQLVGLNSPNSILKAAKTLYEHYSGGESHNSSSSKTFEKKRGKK
Protocol: The compounds of the invention were also tested in the following assay to determine TTK-inhibitory activity. This assay measures transfer of radioactive phosphate from ATP to a protein substrate in the presence or absence of a test compound.
MATERIALS: • A. Recombinant TTK enzyme; • B. Phosphorylated myelin basic protein (MBP); • C. [γ-^33P]ATP: 1 mCi/100 μL; • D. Positive Control: a proprietary compound known to have […] in this assay.
Final concentrations of reaction mixture components (50 μl total volume): 50 mM Tris-HCl, pH 7.5; 0.01% Triton X-100; 10 mM MgCl2; 25 ng TTK (˜4 nM); 5 μM Phosphorylated MBP; 40 μM ATP (1 μCi/well, adjusted ATP specific activity according to strength of radiolabeled ATP).
Mixes were assembled in the wells of a 96-well polypropylene plate as follows: 1 μL 50× compound to be tested; 39 μL 1.282× Reaction Mix; 10 μL 5×ATP Mix.
The following reaction/assay steps were then performed: • 1. Mix thoroughly and incubate at room temperature for 45 minutes; • 2. Add 70 μL/well, except in background wells, of 3% phosphoric acid to terminate reaction, and transfer 100 μL to P81 filter plate; • 3. Wash with 1% phosphoric acid, then dry the P81 filter plate completely; • 4. Add 100 μL/well MicroSint-20 (PerkinElmer #6013621) and seal; • 5.

T3 sequence (P23458 whole entry, species assumed): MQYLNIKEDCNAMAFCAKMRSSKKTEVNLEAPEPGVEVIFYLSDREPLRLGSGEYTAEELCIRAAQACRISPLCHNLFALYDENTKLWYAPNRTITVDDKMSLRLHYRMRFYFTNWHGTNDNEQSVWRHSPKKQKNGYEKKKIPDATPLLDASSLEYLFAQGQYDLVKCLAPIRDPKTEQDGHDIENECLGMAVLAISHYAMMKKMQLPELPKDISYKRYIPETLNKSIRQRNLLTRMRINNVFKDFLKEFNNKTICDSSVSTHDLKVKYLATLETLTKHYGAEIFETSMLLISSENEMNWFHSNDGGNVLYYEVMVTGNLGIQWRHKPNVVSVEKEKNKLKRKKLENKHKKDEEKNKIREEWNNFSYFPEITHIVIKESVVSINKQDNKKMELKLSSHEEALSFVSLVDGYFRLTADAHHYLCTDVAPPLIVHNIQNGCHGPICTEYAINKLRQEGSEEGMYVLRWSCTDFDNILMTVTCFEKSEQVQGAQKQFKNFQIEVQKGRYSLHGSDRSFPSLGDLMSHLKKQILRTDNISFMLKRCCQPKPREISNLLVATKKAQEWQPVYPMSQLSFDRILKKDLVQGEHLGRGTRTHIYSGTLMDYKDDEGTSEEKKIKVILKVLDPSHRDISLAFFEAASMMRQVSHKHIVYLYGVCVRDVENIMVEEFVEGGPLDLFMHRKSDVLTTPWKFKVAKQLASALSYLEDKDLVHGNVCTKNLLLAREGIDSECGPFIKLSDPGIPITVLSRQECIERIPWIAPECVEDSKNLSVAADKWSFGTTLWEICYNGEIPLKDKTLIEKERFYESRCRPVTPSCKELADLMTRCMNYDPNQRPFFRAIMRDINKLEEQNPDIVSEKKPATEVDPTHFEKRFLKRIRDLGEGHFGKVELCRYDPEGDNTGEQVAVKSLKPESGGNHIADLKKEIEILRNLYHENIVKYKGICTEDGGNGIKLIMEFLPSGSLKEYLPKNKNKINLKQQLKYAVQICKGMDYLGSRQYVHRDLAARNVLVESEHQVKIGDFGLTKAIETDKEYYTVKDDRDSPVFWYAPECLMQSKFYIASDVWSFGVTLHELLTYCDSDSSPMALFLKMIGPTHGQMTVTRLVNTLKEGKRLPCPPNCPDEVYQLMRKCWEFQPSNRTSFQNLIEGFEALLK
T4 sequence (P45983 whole entry): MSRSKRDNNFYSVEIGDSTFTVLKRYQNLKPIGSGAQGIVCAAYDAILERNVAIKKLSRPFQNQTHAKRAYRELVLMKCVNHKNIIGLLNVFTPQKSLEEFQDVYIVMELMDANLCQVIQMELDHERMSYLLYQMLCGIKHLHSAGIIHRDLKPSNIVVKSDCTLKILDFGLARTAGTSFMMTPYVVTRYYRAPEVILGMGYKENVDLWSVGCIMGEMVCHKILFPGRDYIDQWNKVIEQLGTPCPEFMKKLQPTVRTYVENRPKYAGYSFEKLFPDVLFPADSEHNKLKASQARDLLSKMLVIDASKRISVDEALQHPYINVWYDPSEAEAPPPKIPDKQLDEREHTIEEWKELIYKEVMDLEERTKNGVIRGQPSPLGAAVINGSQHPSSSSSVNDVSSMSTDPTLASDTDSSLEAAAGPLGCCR
T2 sequence (P16591 whole entry, species assumed): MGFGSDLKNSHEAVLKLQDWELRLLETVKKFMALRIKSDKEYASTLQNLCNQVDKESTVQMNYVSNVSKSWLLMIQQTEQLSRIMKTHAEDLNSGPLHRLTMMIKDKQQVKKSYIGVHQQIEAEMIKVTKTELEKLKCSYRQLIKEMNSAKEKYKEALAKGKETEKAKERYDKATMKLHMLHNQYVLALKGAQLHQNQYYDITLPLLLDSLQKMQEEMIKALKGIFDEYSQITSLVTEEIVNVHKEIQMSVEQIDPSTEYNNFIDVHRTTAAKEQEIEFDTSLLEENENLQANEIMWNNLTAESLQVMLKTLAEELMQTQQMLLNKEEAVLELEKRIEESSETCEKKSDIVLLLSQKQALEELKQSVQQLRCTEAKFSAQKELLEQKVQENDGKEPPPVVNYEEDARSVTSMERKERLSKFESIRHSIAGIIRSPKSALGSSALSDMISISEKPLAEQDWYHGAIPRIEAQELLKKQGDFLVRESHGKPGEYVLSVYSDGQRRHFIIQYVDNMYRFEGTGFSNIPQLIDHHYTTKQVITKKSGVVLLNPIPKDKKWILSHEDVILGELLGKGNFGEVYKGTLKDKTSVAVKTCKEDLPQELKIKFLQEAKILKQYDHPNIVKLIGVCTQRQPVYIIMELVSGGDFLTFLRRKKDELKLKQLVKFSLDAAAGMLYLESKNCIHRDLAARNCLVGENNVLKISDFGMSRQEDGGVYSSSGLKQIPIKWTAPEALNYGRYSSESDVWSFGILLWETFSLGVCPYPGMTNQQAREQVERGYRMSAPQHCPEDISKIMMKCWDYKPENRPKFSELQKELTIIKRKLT

SMILES: Cc1cc(Nc2cc(N3CCN(C)CC3)nc(Sc3ccc(NC(=O)C4CC4)cc3)n2)n[nH]1 [VX-680]
- DNA content / cell cycle progression after release from G1 block (HeLa cells): causes cells to become tetraploid

SMILES: Cc1cc(N2CCOCC2)ccc1Nc1nc(NC2CCCCC2)c2nc[nH]c2n1 [Compound A, N6-cyclohexyl-N2-(2-methyl-4-morpholino-phenyl)-9H-purine-2,6-diamine]
- chromosome segregation (A549 cells): causes chromosome segregation defects
- DNA content (ploidy) (HCT-116 cells): both aneuploidy, as seen in FIG. 3 by a broadening of the 2N and 4N peaks, as well as the formation of tetraploid (8N) cells
- time of maximal induction of the p53 pathway (p53 pathway; 1 μM): ≤ 36 h
- p53 pathway activation (p53, p21 protein) (p53 pathway; 1 μM, time course): activate the p53 pathway in a time- and dose-dependent manner
- p53 protein induction (p53 pathway; increasing concentrations, 48 hours): induced p53 in a dose- and time-dependent manner
- p21 mRNA normalized to GAPDH mRNA (p21 mRNA): induced in a time-dependent manner
- survivin protein (survivin): decrease in survivin protein
- site of p53 phosphorylation (p53): phosphorylated on serine 15
- phosphorylation of serine 139 on H2AX (histone H2AX): induced by Compound A in a time-dependent manner

SMILES: Cc1cc(OCCCN)ccc1Nc1nc(NC2CCCCC2)c2nc[nH]c2n1 [N2-(4-(3-Aminopropoxy)-2-methylphenyl)-N6-cyclohexyl-9H-purine-2,6-diamine]
- binding of Aurora A from cell lysates to bead-coupled compound (Aurora A [1]): failed to bind
- binding of FER from cell lysates to bead-coupled compound (FER [2]): reduced affinity
- binding of JAK1 from cell lysates to bead-coupled compound (JAK1 [3]): reduced affinity
- binding of JNK from cell lysates to bead-coupled compound (JNK [4]): reduced affinity
- IC50 (Aurora A [5]): > 5000 nM
- IC50 (FER [6]): 380 nM
- IC50 (JNK [7]): 120 nM
- IC50 (JAK1 [8]): > 5000 nM
- IC50 (TTK): 3 nM
